Changes are numbered by the printed parent chain. Where two headings read alike, the source gives them in different places. One block for each molecule: values may come before it.
Columns and labels:
Format in all cases: biochemical
GST-GK(p.Ala449Thr) [1] = target: T1, GST-GK(p.Ala449Thr) (Homo sapiens, UniProt P35557, A449T); experiment: Effect of GK synthetic activator on kinetic parameters
T1 construct: made in house; host or cells: E. coli
T1 sequence (P35557 1-465 A449T): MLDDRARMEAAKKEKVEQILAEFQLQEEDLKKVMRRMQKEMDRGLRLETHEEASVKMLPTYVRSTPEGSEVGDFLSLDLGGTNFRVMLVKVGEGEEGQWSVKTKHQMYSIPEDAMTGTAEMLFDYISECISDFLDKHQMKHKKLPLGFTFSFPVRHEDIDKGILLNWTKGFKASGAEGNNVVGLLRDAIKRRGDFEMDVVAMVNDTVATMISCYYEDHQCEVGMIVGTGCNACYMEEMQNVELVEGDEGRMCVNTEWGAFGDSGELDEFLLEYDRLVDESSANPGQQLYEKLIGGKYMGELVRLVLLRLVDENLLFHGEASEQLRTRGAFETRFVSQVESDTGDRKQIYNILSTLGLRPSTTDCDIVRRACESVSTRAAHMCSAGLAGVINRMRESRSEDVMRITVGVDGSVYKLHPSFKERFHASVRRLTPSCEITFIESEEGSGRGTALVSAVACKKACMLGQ
Experimental: (§1) Glucokinase activity was measured spectrophotometrically on a spectrophotometer Uviconxl (Secoman), using an NADP^+-coupled assay with glucose-6-phosphate dehydrogenase, as described previously. The final reaction mixture contained 100 mM Tris pH 7.4, 150 mM KCl, 1 mM MgCl2, 1.4 mM ß-mercaptoethanol, 0.1% BSA, 5 mM ATP-MgCl2, 1 mM NADP^+, and 1 U/ml glucose-6-phosphate dehydrogenase. Determination of kinetic parameters and thermal stability tests were performed as in [20]. […] Inhibition by NAG and MH was determined under standard assay conditions with 50 nM glucokinase. The inhibition by palmitoylCoA was determined in reaction mixtures containing 25 mM Hepes pH 7.1; 25 mM KCl; 1 mM NADP, 1 mM ATP-MgCl2; 2.5 mM MgCl2; 5 mM ß-mercaptoethanol, 1 U/ml glucose-6-phosphate dehydrogenase and 61 nM glucokinase. Due to the low Kcat value of mutant GST-GK(pAla449Thr), the amount of protein used in inhibition assays was 180 nM to get sufficient activity to allow for accurate determination of the inhibitor effect. In these conditions, GK activity (U/mg of GST-GK(pAla449Thr)) in the absence of inhibitors was 1.3±0.08, 1.1±0.06 and 0.9±0.05 at 2, 1.5 and 1 mM of glucose, respectively for NAG and MH assays and 0.5±0.05, 0.33±0.03 and 0.27±0.03 at 2, 1.5 and 1 mM glucose, respectively for palmitoyl-CoA assay.
(§2) GK activator LY2121260 was kindly provided by Elli Lilly and Co, Indianapolis, IN, USA. A stock solution of 1 mM LY2121260 was prepared in 12.5 mM Hepes pH 7.4 with 80% DMSO. Results are shown as means ± SEM, and statistical significance was analysed by the two-tailed Student's t-test. P values of <0.05 were considered statistically significant. The structural analysis of mutations was carried out using the crystal structure of human GK [18] and visualized using the Pymol Molecular Graphics System (Schrödinger).

Wild-type GST-GK [2] = target: T2, Wild-type GST-GK (Homo sapiens, UniProt P35557); experiment: as above
T2 construct: made in house; host or cells: E. coli
T2 sequence (P35557 1-465): T1 sequence (P35557 1-465 A449T) with T449A
Experimental: as §1, §2

GST-GK(p.Ala449Thr) [3] = target: T1, GST-GK(p.Ala449Thr); experiment: Inhibition of glucokinase activity by NAG and MH, Dixon plots; settings: for IC50: glucose 1, 1.5 and 2 mM, 180 nM protein
Experimental: as §1

GST-GK(p.Gly223Ser) = target: T3, GST-GK(p.Gly223Ser) (Homo sapiens, UniProt P35557, G223S); experiment: as above; settings: glucose 12.5, 25 and 50 mM
T3 construct: made in house; host or cells: E. coli
T3 sequence (P35557 1-465 G223S): T1 sequence (P35557 1-465 A449T) with G223S, T449A
Experimental: as §1

Wild-type GST-GK [4] = target: T2, Wild-type GST-GK; experiment: as above; settings: glucose 2, 5 and 8 mM, 50 nM glucokinase
Experimental: as §1

[5] = tested on: human beta-cell glucokinase; experiment: Kinetic analysis of recombinant GST-GK fusion proteins (NADP+-coupled assay with glucose-6-phosphate dehydrogenase); settings: for S0.5 for glucose: means ± SEM; for overall activity, % of the wild-type protein: reflected in the relative activity index; for nH (Hill coefficient): unit less
Experimental: The expression and purification of fusion proteins from E. coli was performed as described previously [22]. Fusion proteins were stored at a concentration of about 1 mg/ml at −80°C in 30% glycerol, 50 mM glucose, 10 mM glutathione, 5 mM DTT, 200 mM KCl and 50 mM Tris/HCl pH = 8.0. Protein concentrations were determined using the Bio-Rad Protein Assay (Bio-Rad Laboratories, GmbH), with bovine serum albumin as standard.
Glucokinase activity was measured spectrophotometrically on a spectrophotometer Uviconxl (Secoman), using an NADP^+-coupled assay with glucose-6-phosphate dehydrogenase, as described previously [22]. The final reaction mixture contained 100 mM Tris pH 7.4, 150 mM KCl, 1 mM MgCl2, 1.4 mM ß-mercaptoethanol, 0.1% BSA, 5 mM ATP-MgCl2, 1 mM NADP^+, and 1 U/ml glucose-6-phosphate dehydrogenase. Determination of kinetic parameters and thermal stability tests were performed as in [20].
One unit of GK is defined as the amount of enzyme that phosphorylates 1 µmol of glucose per min at 30°C.

GST-GK(p.Ala449Thr) [6] = target: T1, GST-GK(p.Ala449Thr); experiment: Inhibition of glucokinase activity by human GKRP; settings: 5 mM glucose; GKRP 0 to 200 nM; 10 µM S6P or 0.2 mM F1P
Experimental: Purified human GKRP was kindly provided by KJ Brocklehurst (Cardiovascular and Gastrointestinal Department, AstraZeneca, Macclesfield, Cheshire SK10 4TG, UK). The effect of GKRP on glucokinase activity was determined as described. The final reaction mixture contained 25 mM Hepes pH 7.1; 25 mM KCl; 1 mM NADP, 1 mM ATP-MgCl2; 2.5 mM MgCl2; 5 mM ß-mercaptoethanol, 1 U/ml glucose-6-phosphate dehydrogenase, 61 nM of GST-GK or 180 nM GST-GK(pAla449Thr), 5 mM glucose, GKRP (0 to 200 nM) and, when indicated, 10 µM sorbitol-6-phosphate (S6P) or 0.2 mM fructose-1-phosphate (F1P). In these conditions, GST-GK(pAla449Thr) activity in the absence of GKRP was 0.8±0.09 U/mg of protein.
Figure 2 Effect of mutation p.Ala449Thr on the GK interaction with GKRP. A) Inhibition of glucokinase activity by human GKRP. Enzyme activity was measured at 5 mM glucose as described in Material and Methods, in the presence of 10 µM S6P (left panel) or 0.2 mM F1P (right panel). Results are means ± SEM for three independent enzyme purifications assayed in triplicate. B) Two-hybrid interaction of GBD-GKRP with GAD-GK or GAD-GK(p.Ala449Thr) mutant. Yeast strain Y187 was used, and fusion proteins were expressed from pGBKT7 and pACTII derivatives. Values are means ± SEM from ß-galactosidase activity of six independent transformants.

Molecule: CS(=O)(=O)c1ccc([C@@]2(C(=O)Nc3nccs3)C[C@H]2C2CCCCC2)cc1 [LY2121260]
S0.5 for glucose (GST-GK(p.Ala449Thr) [1]; 10 µM GK activator, 0.8% DMSO): 3.1 ± 0.3 mM | effect on S0.5 (GST-GK(p.Ala449Thr) [1]; 10 µM activator): did not affect | Kcat (%) (Wild-type GST-GK [2]; 10 µM GK activator, 0.8% DMSO, wild type with buffer = 100): 130.8±3.9 % | increase of Kcat (Wild-type GST-GK [2]; 10 µM activator): about 30% | increase of affinity for glucose (Wild-type GST-GK [2]; 10 µM activator): about 5 fold

IC50 (GST-GK(p.Ala449Thr) [3]; read-out: I50 for NAG): 200 ± 60 µM | effect of mutation on inhibition by NAG (GST-GK(p.Ala449Thr) [3]; vs wild type): did not affect the inhibition | IC50 (GST-GK(p.Gly223Ser); read-out: I50 for NAG): 380 ± 45 µM | IC50 (Wild-type GST-GK [4]; read-out: I50 for NAG): 210 ± 40 µM
Molecule: CC(=O)N[C@@H]1[C@@H](O)[C@H](O)[C@@H](CO)O[C@H]1O [NAG, N-acetylglucosamine]

Molecule: O=C(CO)[C@@H](O)[C@@H](O)[C@H](O)[C@H](O)CO [MH, mannoheptulose]
IC50 (GST-GK(p.Ala449Thr) [3]; read-out: I50 for MH): 670 ± 40 µM | IC50 (GST-GK(p.Gly223Ser); read-out: I50 for MH): 3550 ± 630 µM | IC50 (Wild-type GST-GK [4]; read-out: I50 for MH): 1150 ± 370 µM

B1: GST-GK (p.Ile130Thr): recombinant GST-glucokinase fusion protein with MODY2 mutation p.Ile130Thr (protein, UniProt P35557 1-465, looked up, variant I130T)
Hexokinase-4: T1 sequence (P35557 1-465 A449T) with I130T, T449A
modifications: N-terminal GST fusion
S0.5 for glucose [5]: 8.59 ± 0.45 mM | overall activity, % of the wild-type protein [5]: lower than 20% | nH (Hill coefficient) [5]: 1.01±0.02

B2: GST-GK (p.Asp205His): recombinant GST-glucokinase fusion protein with MODY2 mutation p.Asp205His (protein, UniProt P35557 1-465, looked up, variant D205H)
Hexokinase-4: T1 sequence (P35557 1-465 A449T) with D205H, T449A
modifications: N-terminal GST fusion
S0.5 for glucose [5]: No activity at all | nH (Hill coefficient) [5]: No activity at all

B3: GST-GK (p.Gly223Ser): recombinant GST-glucokinase fusion protein with MODY2 mutation p.Gly223Ser (protein, UniProt P35557 1-465, looked up, variant G223S)
Hexokinase-4: T1 sequence (P35557 1-465 A449T) with G223S, T449A
modifications: N-terminal GST fusion
S0.5 for glucose [5]: 44.0 ± 3.81 mM | overall activity, % of the wild-type protein [5]: < 10% | nH (Hill coefficient) [5]: 1.13±0.01

enzymatic inhibition by GKRP, mutant vs wild type (GST-GK(p.Ala449Thr) [6]): the same
B4: GKRP: purified human glucokinase regulatory protein, competitive inhibitor with respect to glucose (protein, UniProt Q14397 1-625, looked up)
Glucokinase regulatory protein: MPGTKRFQHVIETPEPGKWELSGYEAAVPITEKSNPLTQDLDKADAENIVRLLGQCDAEIFQEEGQALSTYQRLYSESILTTMVQVAGKVQEVLKEPDGGLVVLSGGGTSGRMAFLMSVSFNQLMKGLGQKPLYTYLIAGGDRSVVASREGTEDSALHGIEELKKVAAGKKRVIVIGISVGLSAPFVAGQMDCCMNNTAVFLPVLVGFNPVSMARNDPIEDWSSTFRQVAERMQKMQEKQKAFVLNPAIGPEGLSGSSRMKGGSATKILLETLLLAAHKTVDQGIAASQRCLLEILRTFERAHQVTYSQSPKIATLMKSVSTSLEKKGHVYLVGWQTLGIIAIMDGVECIHTFGADFRDVRGFLIGDHSDMFNQKAELTNQGPQFTFSQEDFLTSILPSLTEIDTVVFIFTLDDNLTEVQTIVEQVKEKTNHIQALAHSTVGQTLPIPLKKLFPSIISITWPLLFFEYEGNFIQKFQRELSTKWVLNTVSTGAHVLLGKILQNHMLDLRISNSKLFWRALAMLQRFSGQSKARCIESLLRAIHFPQPLSDDIRAAPISCHVQVAHEKEQVIPIALLSLLFRCSITEAQAHLAAAPSVCEAVRSALAGPGQKRTADPLEILEPDVQ

— paper PMC3265476, “Functional Characterization of MODY2 Mutations Highlights the Importance of the Fine-Tuning of Glucokinase and Its Role in Glucose Sensing” (PLoS ONE, 2012)
